Patent US9328112B2, “Tetracyclic CDK9 kinase inhibitors” (AbbVie Inc., priority 2014, dated 2016)

Columns and labels:
[1] = target: CDK9/Cyclin T1 (Homo sapiens (Human), UniProt P50750); experiment: CDK9 enzyme assay (LANCE ULight TR-FRET kinase assay); type: biochemical; conditions: 1000 μM ATP, 100 nM ULight MBP, kinase reaction 1 hour
How it was run: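 Human CDK9/Cyclin T1 phosphorylating 100 nM ULight-MBP with 1000 μM ATP in HEPES/MgCl2 buffer, 1 h reaction. Stopped with 20 mM EDTA plus 0.5 nM Eu anti-phospho-MBP antibody, incubated 1 h, read by TR-FRET (ex 320 nm, em 615/665 nm).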

[2] = tested on: H929 cells; experiment: Cell viability assay (Cell TiterGlo); type: cell-based; conditions: Homo sapiens, NCI-H929, 24 hours at 37° C., Cell TiterGlo luminescence
Experimental: The cell viability assay was performed using H929 cells. Cells were seeded in 96-well plates at 10,000 cells/well and, after overnight incubation, treated with compounds in a dose response of 3-fold dilutions from 10 μM to 0.005 μM ([…], 0.1% final DMSO concentration). After 24 hours at 37° C., cell viability was measured using Cell TiterGlo reagent (Promega) with a luminescence reader.

Chain of CDK9/Cyclin T1 (P50750 whole entry): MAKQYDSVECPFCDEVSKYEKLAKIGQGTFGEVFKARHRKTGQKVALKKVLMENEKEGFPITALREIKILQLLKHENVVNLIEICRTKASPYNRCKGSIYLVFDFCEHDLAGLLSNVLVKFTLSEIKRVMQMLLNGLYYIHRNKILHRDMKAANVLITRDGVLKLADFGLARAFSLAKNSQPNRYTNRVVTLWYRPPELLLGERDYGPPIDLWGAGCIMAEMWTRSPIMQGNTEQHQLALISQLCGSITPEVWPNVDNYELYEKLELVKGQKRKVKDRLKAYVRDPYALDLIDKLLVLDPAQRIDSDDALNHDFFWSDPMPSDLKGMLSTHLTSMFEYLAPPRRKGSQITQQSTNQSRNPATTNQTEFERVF
Chain of CDK9/Cyclin T1 (O60563 whole entry partner): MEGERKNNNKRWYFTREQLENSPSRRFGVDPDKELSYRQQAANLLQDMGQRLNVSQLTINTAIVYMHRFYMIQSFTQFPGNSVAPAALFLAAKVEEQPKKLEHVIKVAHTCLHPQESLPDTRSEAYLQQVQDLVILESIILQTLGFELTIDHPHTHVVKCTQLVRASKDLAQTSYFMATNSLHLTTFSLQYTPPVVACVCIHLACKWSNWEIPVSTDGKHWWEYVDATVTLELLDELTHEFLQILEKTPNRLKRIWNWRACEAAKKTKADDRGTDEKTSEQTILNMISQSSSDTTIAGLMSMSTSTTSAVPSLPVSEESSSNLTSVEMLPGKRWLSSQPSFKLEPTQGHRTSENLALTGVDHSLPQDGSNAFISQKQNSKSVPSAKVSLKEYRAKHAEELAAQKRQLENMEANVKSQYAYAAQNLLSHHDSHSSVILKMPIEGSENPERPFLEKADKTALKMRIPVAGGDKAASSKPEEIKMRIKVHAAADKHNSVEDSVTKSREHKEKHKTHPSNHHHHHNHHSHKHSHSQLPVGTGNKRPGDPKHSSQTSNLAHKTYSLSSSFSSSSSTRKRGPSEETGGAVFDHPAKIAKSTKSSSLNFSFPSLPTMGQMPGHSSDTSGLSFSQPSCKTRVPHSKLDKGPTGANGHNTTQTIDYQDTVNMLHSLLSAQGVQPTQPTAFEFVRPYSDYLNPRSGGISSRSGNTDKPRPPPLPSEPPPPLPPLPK

| IC50 [1] | IC50 [2] | SMILES |
| --- | --- | --- |
| 0.066 µM | 0.6 µM | CN1Cc2c(C3=CCN4C(=O)OC[C@H]4C3)[nH]c3nccc(c23)-c2cc(F)ccc21 [Example 153, (8aR)-7-(10-fluoro-7-methyl-6,7-dihydro-4H-3,4,7-triazadibenzo[cd,f]azulen-5-yl)-1,5,8,8a-tetrahydro[1,3]oxazolo[3,4-a]pyridin-3-one] |
| 0.12 µM | 0.23 µM | CN1Cc2c(C3=CCCN(S(C)(=O)=O)CC3)[nH]c3nccc(c23)-c2cc(F)ccc21 [Example 89, 10-fluoro-7-methyl-5-[1-(methylsulfonyl)-2,3,6,7-tetrahydro-1H-azepin-4-yl]-6,7-dihydro-4H-3,4,7-triazadibenzo[cd,f]azulene] |
| 0.057 µM | 0.047 µM | CN1Cc2c(C3=CCN(CC(=O)N(CCO)CCO)CC3)[nH]c3nccc(c23)-c2cc(F)ccc21 [Example 53, 2-[4-(10-fluoro-7-methyl-6,7-dihydro-4H-3,4,7-triazadibenzo[cd,f]azulen-5-yl)-3,6-dihydropyridin-1(2H)-yl]-N,N-bis(2-hydroxyethyl)acetamide] |
| 0.42 µM | 1.2 µM | CN1Cc2c(C3=CCNCC3(C)C)[nH]c3nccc(c23)-c2cc(F)ccc21 [Example 92, 5-(3,3-dimethyl-1,2,3,6-tetrahydropyridin-4-yl)-10-fluoro-7-methyl-6,7-dihydro-4H-3,4,7-triazadibenzo[cd,f]azulene] |
| 0.15 µM | 1.1 µM | CN1Cc2c(C3=CCC(C(=O)O)CC3)[nH]c3nccc(c23)-c2cc(F)ccc21 (stereo not shown) [Example 41, 4-(10-fluoro-7-methyl-6,7-dihydro-4H-3,4,7-triazadibenzo[cd,f]azulen-5-yl)cyclohex-3-ene-1-carboxylic acid] |
| 0.047 µM | 0.59 µM | CCOC(=O)NS(=O)(=O)N1CC=C(c2[nH]c3nccc4c3c2CN(C)c2ccc(F)cc2-4)CC1 [Example 3, ethyl{[4-(10-fluoro-7-methyl-6,7-dihydro-4H-3,4,7-triazadibenzo[cd,f]azulen-5-yl)-3,6-dihydropyridin-1(2H)-yl]sulfonyl}carbamate] |
| 0.051 µM | 0.008 µM | CN1Cc2c(C3=CCN(CC(=O)N4CCC[C@@H]4CO)CC3)[nH]c3ncc(F)c(c23)-c2cc(F)ccc21 [Example 75, 2-[4-(1,10-difluoro-7-methyl-6,7-dihydro-4H-3,4,7-triazadibenzo[cd,f]azulen-5-yl)-3,6-dihydropyridin-1(2H)-yl]-1-[(2R)-2-(hydroxymethyl)pyrrolidin-1-yl]ethanone] |
| 0.094 µM | 0.18 µM | CN1Cc2c(C3=CC4CN(CC(=O)N5CC(O)C5)CC4C3)[nH]c3nccc(c23)-c2cc(F)ccc21 (stereo not shown) [Example 84, 2-[5-(10-fluoro-7-methyl-6,7-dihydro-4H-3,4,7-triazadibenzo[cd,f]azulen-5-yl)-3,3a,4,6a-tetrahydrocyclopenta[c]pyrrol-2(1H)-yl]-1-(3-hydroxyazetidin-1-yl)ethanone] |
| 0.16 µM | 1.1 µM | CN1Cc2c(C3=CCCN(CC(=O)N4CC(O)C4)C3)[nH]c3nccc(c23)-c2cc(F)ccc21 [Example 121, 2-[5-(10-fluoro-7-methyl-6,7-dihydro-4H-3,4,7-triazadibenzo[cd,f]azulen-5-yl)-3,6-dihydropyridin-1(2H)-yl]-1-(3-hydroxyazetidin-1-yl)ethanone] |
| 0.12 µM | 0.96 µM | CN(C)C(=O)C1CC=C(c2[nH]c3nccc4c3c2CN(C)c2ccc(F)cc2-4)CC1 (stereo not shown) [Example 50, 4-(10-fluoro-7-methyl-6,7-dihydro-4H-3,4,7-triazadibenzo[cd,f]azulen-5-yl)-N,N-dimethylcyclohex-3-ene-1-carboxamide] |
| 0.061 µM | 0.091 µM | CN1Cc2c(C3=CCC(N[C@@H](Cc4ccccc4)C(=O)O)CC3)[nH]c3nccc(c23)-c2cc(F)ccc21 (stereo partly drawn) [Example 35, N-[4-(10-fluoro-7-methyl-6,7-dihydro-4H-3,4,7-triazadibenzo[cd,f]azulen-5-yl)cyclohex-3-en-1-yl]-L-phenylalanine] |
| 0.062 µM | 0.73 µM | CS(=O)(=O)N1CC=C(c2[nH]c3nccc4c3c2CNc2ccc(F)cc2-4)CC1 [Example 5, 10-fluoro-5-[1-(methylsulfonyl)-1,2,3,6-tetrahydropyridin-4-yl]-6,7-dihydro-4H-3,4,7-triazadibenzo[cd,f]azulene] |
| 0.045 µM | 0.014 µM | CN(CC(O)CO)C(=O)CN1CC=C(c2[nH]c3ncc(F)c4c3c2CN(C)c2ccc(F)cc2-4)CC1 (stereo not shown) [Example 110, 2-[4-(1,10-difluoro-7-methyl-6,7-dihydro-4H-3,4,7-triazadibenzo[cd,f]azulen-5-yl)-3,6-dihydropyridin-1(2H)-yl]-N-(2,3-dihydroxypropyl)-N-methylacetamide] |
| 0.081 µM | 0.32 µM | CN1Cc2c(C3=CCC(N[C@@H](Cc4ccc(O)cc4)C(=O)O)CC3)[nH]c3nccc(c23)-c2cc(F)ccc21 (stereo partly drawn) [Example 40, N-[4-(10-fluoro-7-methyl-6,7-dihydro-4H-3,4,7-triazadibenzo[cd,f]azulen-5-yl)cyclohex-3-en-1-yl]-L-tyrosine] |

| SMILES | IC50 [1] | IC50 [2] |
| --- | --- | --- |
| CN1Cc2c(C3=C[C@H]4CC[C@@H](C3)N4CC(=O)N3CC(O)C3)[nH]c3nccc(c23)-c2cc(F)ccc21 [Example 80, 2-[(1R,5S)-3-(10-fluoro-7-methyl-6,7-dihydro-4H-3,4,7-triazadibenzo[cd,f]azulen-5-yl)-8-azabicyclo[3.2.1]oct-2-en-8-yl]-1-(3-hydroxyazetidin-1-yl)ethanone] | 0.097 µM | 0.19 µM |
| CN1Cc2c(C3=CCN(C4CC(CC(=O)O)C4)CC3)[nH]c3nccc(c23)-c2cc(F)ccc21 (stereo not shown) [Example 140, {3-[4-(10-fluoro-7-methyl-6,7-dihydro-4H-3,4,7-triazadibenzo[cd,f]azulen-5-yl)-3,6-dihydropyridin-1(2H)-yl]cyclobutyl}acetic acid] | 0.042 µM | 0.058 µM |
| CN1Cc2c(C3=CCN(C4CC(C(=O)O)C4)CC3)[nH]c3ncc(F)c(c23)-c2cc(F)ccc21 (stereo not shown) [Example 193, 3-[4-(1,10-difluoro-7-methyl-6,7-dihydro-4H-3,4,7-triazadibenzo[cd,f]azulen-5-yl)-3,6-dihydropyridin-1(2H)-yl]cyclobutanecarboxylic acid] | 0.076 µM | 0.011 µM |
| CN1Cc2c(C3=CC4CCCC(C3)N4S(C)(=O)=O)[nH]c3nccc(c23)-c2cc(F)ccc21 (stereo not shown) [Example 99, 10-fluoro-7-methyl-5-[9-(methylsulfonyl)-9-azabicyclo[3.3.1]non-2-en-3-yl]-6,7-dihydro-4H-3,4,7-triazadibenzo[cd,f]azulene] | 0.4 µM | 2.6 µM |
| CCOC(=O)C1c2c(C3=CCNCC3)[nH]c3nccc(c23)-c2cc(F)ccc2N1C (stereo not shown) [Example 28, ethyl 10-fluoro-7-methyl-5-(1,2,3,6-tetrahydropyridin-4-yl)-6,7-dihydro-4H-3,4,7-triazadibenzo[cd,f]azulene-6-carboxylate] | 0.15 µM | 0.025 µM |
| CN1Cc2c(C3=C[C@H]4CC[C@@H](C3)N4S(C)(=O)=O)[nH]c3nccc(c23)-c2cc(F)ccc21 [Example 56, 10-fluoro-7-methyl-5-[(1R,5S)-8-(methylsulfonyl)-8-azabicyclo[3.2.1]oct-2-en-3-yl]-6,7-dihydro-4H-3,4,7-triazadibenzo[cd,f]azulene] | 0.096 µM | 0.68 µM |
| CN1Cc2c(C3=CCNCC3)[nH]c3ncc(F)c(c23)-c2ccccc21 [Example 159, 1-fluoro-7-methyl-5-(1,2,3,6-tetrahydropyridin-4-yl)-6,7-dihydro-4H-3,4,7-triazadibenzo[cd,f]azulene] | 0.034 µM | 0.008 µM |
| CN1Cc2c(C3=CC4CCCC(C3)N4CC(=O)O)[nH]c3nccc(c23)-c2cc(F)ccc21 (stereo not shown) [Example 108, [3-(10-fluoro-7-methyl-6,7-dihydro-4H-3,4,7-triazadibenzo[cd,f]azulen-5-yl)-9-azabicyclo[3.3.1]non-2-en-9-yl]acetic acid] | 0.11 µM | 1.2 µM |
| CN1Cc2c(C3=C[C@H](CO)NCC3)[nH]c3nccc(c23)-c2cc(F)ccc21 [Example 154, [(2R)-4-(10-fluoro-7-methyl-6,7-dihydro-4H-3,4,7-triazadibenzo[cd,f]azulen-5-yl)-1,2,5,6-tetrahydropyridin-2-yl]methanol] | 0.028 µM | 0.056 µM |
| CN(CC(O)CO)C(=O)CN1[C@H]2CC[C@@H]1C=C(c1[nH]c3nccc4c3c1CN(C)c1ccc(F)cc1-4)C2 (stereo partly drawn) [Example 83, N-(2,3-dihydroxypropyl)-2-[(1R,5S)-3-(10-fluoro-7-methyl-6,7-dihydro-4H-3,4,7-triazadibenzo[cd,f]azulen-5-yl)-8-azabicyclo[3.2.1]oct-2-en-8-yl]-N-methylacetamide] | 0.14 µM | 0.14 µM |
| CN1Cc2c(C3=CCN(C4CC(CC(=O)O)C4)CC3)[nH]c3ncc(F)c(c23)-c2cc(F)ccc21 (stereo not shown) [Example 192, {3-[4-(1,10-difluoro-7-methyl-6,7-dihydro-4H-3,4,7-triazadibenzo[cd,f]azulen-5-yl)-3,6-dihydropyridin-1(2H)-yl]cyclobutyl}acetic acid] | 0.079 µM | 0.027 µM |
| CN(C)C(=O)CN1CC=C(c2[nH]c3nccc4c3c2CN(C)c2ccc(F)cc2-4)CC1 [Example 12, 2-[4-(10-fluoro-7-methyl-6,7-dihydro-4H-3,4,7-triazadibenzo[cd,f]azulen-5-yl)-3,6-dihydropyridin-1(2H)-yl]-N,N-dimethylacetamide] | 0.051 µM | 0.042 µM |
